In patent US6982348B2, “Aminoethanol derivatives” (Takeda Pharmaceutical Company Limited, priority 2001, dated 2006):

How the values were obtained:
[1] = biological target: T1, human CETP (Homo sapiens, UniProt P11597); assay: Assay of cholesteryl ester transfer protein inhibitory activity, standard measurement system; format: biochemical; settings: BODIPY-CE-ME donor, VLDL-LDL acceptor, reaction at 37° C. for 30 min.
T1 sequence (P11597 18-493): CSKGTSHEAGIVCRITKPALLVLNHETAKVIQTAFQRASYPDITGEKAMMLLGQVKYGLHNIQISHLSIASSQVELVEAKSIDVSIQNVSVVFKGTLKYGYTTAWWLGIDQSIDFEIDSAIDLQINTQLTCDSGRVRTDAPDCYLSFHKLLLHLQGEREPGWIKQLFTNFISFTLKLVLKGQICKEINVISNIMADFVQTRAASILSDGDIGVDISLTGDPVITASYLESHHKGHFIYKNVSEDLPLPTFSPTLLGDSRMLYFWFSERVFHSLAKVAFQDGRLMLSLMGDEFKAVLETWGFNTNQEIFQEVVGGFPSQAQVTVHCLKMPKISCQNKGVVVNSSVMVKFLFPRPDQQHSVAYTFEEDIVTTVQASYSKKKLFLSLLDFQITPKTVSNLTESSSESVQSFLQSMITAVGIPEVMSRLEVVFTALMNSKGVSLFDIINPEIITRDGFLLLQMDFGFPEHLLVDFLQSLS
Method: (§1) Assay of Cholesteryl Ester Transfer Protein Inhibitory Activity
(§2) Fresh rabbit serum was adjusted with KBr to the density of (1.063 g/ml), and the fractions (VLDL-LDL, density<1.063 g/ml) floated by ultra-centrifugation operation (SW41—Ti, 40,000 rpm, 18 hrs., 4° C., Beckman model L8-55) were collected, subjected to dialysis against 0.15 M NaCl-10 mM Tris-HCl, pH 7.4 (TBS), sterilized by filtration through a filter and preserved at 4° C.
(§3) A solution of BODIPY-CE (0.6 mg) in chloroform was added to egg PC (phosphatidylcholine) ([…]) and triolein (2 mg), and after dissolution, the lipid was air dried under a nitrogen gas reflux and the solvent was removed under high vacuum. To this lipid was added an apo HDL solution (7.5 ml) obtained by defatting human HDL (1.063<d<1.21) with chloroform-methanol (2:1, v/v), dissolving in 6 M urea-containing TBS and dialyzing against TBS, and the mixture was subjected to sonication (BRANSON SONIFIRE CELL DISRUPTOR 200, dial 6, 5 min×4) to give BOBIPY-CE-ME. After centrifugation (CENTRIPREP 10), it was sterilized by filtration through a filter and preserved at 4° C.
(§4) The test compound (20% DMSO solution, 5 μl), TS (75 μl), acceptor lipoprotein (VLDL-LDL, 20 μl) and partially purified human CETP (25 μl) were mixed and incubated at 37° C. for 30 min. BODIPY-CE-ME (25 μl) was added (total 150 μl) and a transfer reaction was started. After reaction at 37° C. for 30 min., fluorescence intensity was measured at Ex. 490 nm/Em. 530 nm. The CETP inhibitory activity (% inhibition) was calculated by the following formula. [formula] 4) 50% Human Plasma-Containing Measurement System
(§5) The IC50 value was determined as a concentration showing 50% inhibition by plotting the logarithm of the concentration of test compound and % inhibition.

[2] = biological target: T1, human CETP; assay: Assay of cholesteryl ester transfer protein inhibitory activity, 50% human plasma-containing measurement system; format: biochemical; settings: BODIPY-CE-ME donor, VLDL-LDL acceptor, reaction at 37° C. for 60 min.
Method: as §1, §2, §3
as §4, with “5 μl), human plasma (75 μl),” for “5 μl), TS (75 μl),”, “C. for 60 min., fluorescence” for “C. for 30 min., fluorescence”, “formula. [formula]” for “formula. [formula] 4) 50% Human Plasma-Containing Measurement System”
as §5

| Compound | IC50 [1] [µM] | melting point [°C] | IC50 [2] [µM] |
| --- | --- | --- | --- |
| O=C(N[C@H](Cc1ccc(C(F)(F)F)cc1)[C@@H](O)c1ccc(F)cc1)c1ccc(F)c2ccccc12 (racemic) [Example 30, 4-fluoro-N-((1RS,2SR)-2-(4-fluorophenyl)-2-hydroxy-1-((4-(trifluoromethyl)phenyl)methyl)ethyl)-1-naphthalenecarboxamide] | 0.3 | 210 to 211 | 2.5 |
| O=C(N[C@H](Cc1ccc(C(F)(F)F)cc1)[C@@H](O)c1cccc(F)c1)c1cccc2c1C=CCCC2 (racemic) [Example 177, N-((1RS,2SR)-2-(3-fluorophenyl)-2-hydroxy-1-((4-(trifluoromethyl)phenyl)methyl)ethyl)-6,7-dihydro-5H-benzo[a]cycloheptene-1-carboxamide] | 0.091 | 151 to 152 |  |
| O=C(N[C@H](Cc1ccc(C(F)(F)F)cc1)[C@@H](O)c1ccc(Oc2ccccc2)cc1)c1cccc2c1C=CCCC2 (racemic) [Example 210, N-((1RS,2SR)-2-hydroxy-2-(4-phenoxyphenyl)-1-((4-(trifluoromethyl)phenyl)methyl)ethyl)-6,7-dihydro-5H-benzo[a]cycloheptene-1-carboxamide] | 0.088 |  | 1.4 |
| CC(C)(C)C(F)(F)c1ccc(C[C@@H](NC(=O)c2ccc(F)c3ccccc23)[C@@H](O)c2cccc(Cl)c2)cc1 (racemic) [Example 379, N-{(1RS,2SR)-2-(3-chlorophenyl)-1-[4-(1,1-difluoro-2,2-dimethylpropyl)benzyl]-2-hydroxyethyl}-4-fluoro-1-naphthamide] |  | 104 to 106 |  |
| CC(C)(C)C(F)(F)c1ccc(C[C@@H](NC(=O)c2cccc3c2C=CCCC3)[C@@H](O)c2cccc(Cl)c2)cc1 (racemic) [Example 380, N-{(1RS,2SR)-2-(3-chlorophenyl)-1-[4-(1,1-difluoro-2,2-dimethylpropyl)benzyl]-2-hydroxyethyl}-6,7-dihydro-5H-benzo[a]cycloheptene-1-carboxamide] |  | 119 to 120 |  |
| CC(C)(C)C(F)(F)c1ccc(C[C@@H](NC(=O)c2cccc3c(Cl)cccc23)[C@@H](O)c2cccc(Cl)c2)cc1 (racemic) [Example 381, 5-chloro-N-{(1RS,2SR)-2-(3-chlorophenyl)-1-[4-(1,1-difluoro-2,2-dimethylpropyl)benzyl]-2-hydroxyethyl}-1-naphthamide] |  | 99 to 101 |  |
| CC(C)(C)OC(=O)NCC(=O)O[C@H](c1ccc(F)cc1)[C@H](Cc1cccc(OC(F)(F)C(F)F)c1)NC(=O)c1cccc2c1C=CCCC2 (racemic) [Example 386, N-(tert-butoxycarbonyl)glycine (1RS,2SR)-2-[(6,7-dihydro-5H-benzo[a]cyclohepten-1-ylcarbonyl)amino]-1-(4-fluorophenyl)-3-[3-(1,1,2,2-tetrafluoroethoxy)phenyl]propyl ester] |  | 151 to 152 |  |
| CC(C)(C)OC(=O)NCC(=O)O[C@H](c1ccc(F)cc1)[C@H](Cc1cccc(OC(F)(F)C(F)F)c1)NC(=O)c1ccc(F)c2ccccc12 (racemic) [Example 390, N-(tert-butoxycarbonyl)glycine (1RS,2SR)-2-[(4-fluoro-1-naphthoyl)amino]-1-(4-fluorophenyl)-3-[3-(1,1,2,2-tetrafluoroethoxy)phenyl]propyl ester] |  | 126 to 127 |  |
| O=C(NC(Cc1ccc(C(F)(F)F)cc1)C(O)c1ccc(F)cc1)c1cccc2ccccc12 (stereo not drawn) [226(+)-form] | 0.4 |  | 4.2 |
| O=C(NC(Cc1ccc(C(F)(F)F)cc1)C(O)c1ccc(F)cc1)c1ccc(F)c2ccccc12 (stereo not drawn) [227(+)-form] | 0.21 |  | 1.7 |
| O=C(N[C@@H](Cc1ccc(C(F)(F)F)cc1)[C@H](O)c1ccc(F)cc1)c1ccc(C(F)F)c2ccccc12 [Example 64, 4-(difluoromethyl)-N-((1S,2R)-2-(4-fluorophenyl)-2-hydroxy-1-((4-(trifluoromethyl)phenyl)methyl)ethyl)-1-naphthalenecarboxamide] |  | 212 to 213 |  |

Results, then the compound that gave them:

| IC50 [1] [µM] | melting point [°C] | IC50 [2] [µM] | Compound |
| --- | --- | --- | --- |
| 0.12 | 197 to 198 |  | O=C(N[C@H](Cc1ccc(C(F)(F)F)cc1)[C@@H](O)c1ccc(F)cc1)c1cccc2c1C=CCCC2 (racemic) [Example 29, N-[(1RS,2SR)-2-(4-fluorophenyl)-2-hydroxy-1-[4-(trifluoromethyl)benzyl]ethyl]-6,7-dihydro-5H-benzo[a]cycloheptene-1-carboxamide] |
| 0.015 | 176 to 177 | 0.49 | O=C(N[C@H](Cc1cccc(OC(F)(F)C(F)F)c1)[C@@H](O)c1ccc(F)cc1)c1cccc2c1C=CCCC2 (racemic) [Example 122, N-[(1RS,2SR)-2-(4-fluorophenyl)-2-hydroxy-1-[3-(1,1,2,2-tetrafluoroethoxy)benzyl]ethyl]-6,7-dihydro-5H-benzo[a]cycloheptene-1-carboxamide] |
| 0.035 | 165 to 166 | 0.95 | O=C(N[C@H](Cc1cccc(OC(F)(F)C(F)F)c1)[C@@H](O)c1ccc(F)cc1)c1cccc2c1C=CCC2 (racemic) [Example 123, N-[(1RS,2SR)-2-(4-fluorophenyl)-2-hydroxy-1-[3-(1,1,2,2-tetrafluoroethoxy)benzyl]ethyl]-5,6-dihydronaphthalene-1-carboxamide] |
| 0.046 | 194 to 195 | 2.4 | O=C(N[C@H](Cc1cccc(OC(F)(F)C(F)F)c1)[C@@H](O)c1ccc(F)cc1)c1cccc2c1CCCCC2 (racemic) [Example 124, N-[(1RS,2SR)-2-(4-fluorophenyl)-2-hydroxy-1-[3-(1,1,2,2-tetrafluoroethoxy)benzyl]ethyl]-6,7,8,9-tetrahydro-5H-benzo[a]cycloheptene-1-carboxamide] |
| 0.0084 |  | 0.08 | O=C(N[C@H](Cc1cccc(OC(F)(F)C(F)F)c1)[C@@H](O)c1ccc(Oc2ccccc2)cc1)c1cccc2c1C=CCCC2 (racemic) [Example 217, N-((1RS,2SR)-2-hydroxy-2-(4-(phenyloxy)phenyl)-1-((3-((1,1,2,2-tetrafluoroethyl)oxy)phenyl)methyl)ethyl)-6,7-dihydro-5H-benzo[a]cycloheptene-1-carboxamide] |
| 0.079 | 151 to 152 |  | O=C(N[C@H](Cc1cccc(OC(F)(F)C(F)F)c1)[C@@H](O)c1cccc(F)n1)c1cccc2c1C=CCCC2 (racemic) [Example 222, N-((1RS,2RS)-2-(6-fluoropyridin-2-yl)-2-hydroxy-1-((3-(1,1,2,2-tetrafluoroethoxy)phenyl)methyl)ethyl)-6,7-dihydro-5H-benzo[a]cycloheptene-1-carboxamide] |
|  | 176 to 177 |  | CC(=O)O[C@H](c1ccc(F)cc1)[C@H](Cc1cccc(OC(F)(F)C(F)F)c1)NC(=O)c1cccc2c1C=CCCC2 (racemic) [Example 382, (1RS,2SR)-2-[(6,7-dihydro-5H-benzo[a]cyclohepten-1-ylcarbonyl)amino]-1-(4-fluorophenyl)-3-[3-(1,1,2,2-tetrafluoroethoxy)phenyl]propyl acetate] |
| 0.03 |  | 0.99 | O=C(NC(Cc1cccc(OC(F)(F)C(F)F)c1)C(O)c1ccc(F)cc1)c1ccc(F)c2ccccc12 (stereo not drawn) [228(+)-form] |
| 0.0086 |  | 0.24 | O=C(NC(Cc1cccc(OC(F)(F)C(F)F)c1)C(O)c1ccc(F)cc1)c1cccc2c1C=CCCC2 (stereo not drawn) [229(+)-form] |
